≈ marks a conversion by molar mass, not a printed value.
How the values were obtained:
[1] = prior art material of CN103108859; cited from earlier work
[2] = cited from earlier work
[3] = Hole mobility rate of the hole transporting material; assay type: physicochemical; details: hole transporting layer material
Solubility in NMP = assay type: physicochemical; details: NMP solvent
[4] = commercially available hole transporting layer material

| Structure (SMILES) | hole mobility rate [3] | also measured |
| --- | --- | --- |
| CC1(C)c2ccccc2-c2ccc(N(c3ccc4c(c3)C3(c5ccccc5-c5ccccc53)c3ccccc3-4)c3ccccc3-c3ccccc3)cc21 | – | solubility [1]: good; mobility rate ([2]; prior art material of CN103108859): higher |
| c1ccc(-c2ccc(N(c3ccc(-c4ccccc4)cc3)c3ccc(N(c4ccc(-c5ccccc5)cc4)c4ccc(-c5ccccc5)cc4)cc3)cc2)cc1 [Com. Example 4] | 2×10^−4 cm^2/V·S | – |
| Cc1ccc(-c2ccc(N(c3ccc(-c4ccccc4)cc3)c3ccc(-c4ccc(N(c5ccc(-c6ccccc6)cc5)c5ccc(-c6ccc(C)cc6)cc5)c5c4CCCC5)cc3)cc2)cc1 [Example 1] | 0.00041 cm²/(V·s) | solubility in NMP (Solubility in NMP): 10000 µg/mL (≈ 11.4 mM) |
| c1ccc(-c2ccc(N(c3ccc(-c4ccccc4)cc3)c3ccc(-c4ccc(N(c5ccc(-c6ccccc6)cc5)c5ccc(-c6ccccc6)cc5)c5c4CCCC5)cc3)cc2)cc1 [Com. Example 3] | 7×10^−5 cm^2/V·S | – |
| c1ccc(-c2ccc(N(c3ccc(-c4ccccc4)cc3)c3ccc(N(c4ccc(-c5ccccc5)cc4)c4ccc(-c5ccccc5)cc4)cc3)cc2)cc1 [drawing 1] | – | lateral mobility rate [2, 4]: not very high; longitudinal mobility rate [2, 4]: higher |
| c1ccc(-c2ccc(N(c3ccc(-c4ccccc4)cc3)c3ccc(-c4ccc(N(c5ccc(-c6ccccc6)cc5)c5ccc(-c6ccccc6)cc5)cc4)cc3)cc2)cc1 [Com. Example 1] | 3×10^−4 cm^2/V·S | – |
| Cc1ccc(-c2ccc(N(c3ccc(-c4ccccc4)cc3)c3ccc(-c4ccc(N(c5ccc(-c6ccccc6)cc5)c5ccc(-c6ccc(C)cc6)cc5)cc4)cc3)cc2)cc1 [Com. Example 2] | 3.5×10^−4 cm^2/V·S | solubility in NMP (Solubility in NMP): 2200 µg/mL (≈ 2.68 mM) |

Now from value to compound, other results behind:

| hole mobility rate [3] | Structure (SMILES) | also measured |
| --- | --- | --- |
| 1.8×10^−4 cm^2/V·S | Cc1cc(N(c2ccc(-c3ccccc3)cc2)c2ccc(-c3cccc4c3CCCC4)cc2)ccc1-c1ccc(N(c2ccc(-c3ccccc3)cc2)c2ccc(-c3cccc4c3CCCC4)cc2)cc1 [Example 3] | – |
| 2.1×10^−4 cm^2/V·S | Cc1cccc(-c2ccc(N(c3ccc(-c4cccc5c4CCCC5)cc3)c3ccc(-c4ccc(N(c5ccc(-c6cccc(C)c6)cc5)c5ccc(-c6cccc7c6CCCC7)cc5)c5c4CCCC5)cc3)cc2)c1 [Example 2] | – |
| 1.9×10^−4 cm^2/V·S | Cc1ccccc1-c1ccc(N(c2ccc(-c3ccccc3)cc2)c2ccc(-c3ccc(N(c4ccc(-c5ccccc5)cc4)c4ccc(-c5ccccc5C)c5c4CCCC5)c4c3CCCC4)cc2)c2c1CCCC2 [Example 4] | – |

From US10686136B2, “Hole transporting material, OLED display panel and electronic device comprising the same” (SHANGHAI TIANMA AM-OLED CO., LTD., priority 2016, dated 2020)
